What was measured:
[1] = molecular target: Mcl-1 (Homo sapiens, UniProt Q07820); test: Alphascreen GST competition binding assay, benzoylurea compounds vs Biotinylated Bak BH3 peptide on GST tagged Mcl-1 protein; conditions: GST tagged Mcl-1 protein 0.4 nM, Biotinylated Bak BH3 peptide 4.0 nM, 4 hours at room temperature; n.b. = not binding in the assay conditions
[2] = molecular target: T1, Bcl-xLΔ25 (Homo sapiens, UniProt Q07817); test: Alphascreen GST competition binding assay, benzoylurea compounds vs Biotinylated Bim BH3-26 peptide on GST tagged Bcl-xL ΔC25 protein; conditions: GST tagged Bcl-xL ΔC25 protein 0.6 nM, Biotinylated Bim BH3-26 peptide 5.0 nM, 4 hours at room temperature; n.b. = not binding in the assay conditions
T1 construct: GST tagged Bcl-xL ΔC25 protein
T1 sequence (Q07817 1-208 limits assumed, stated change not applied): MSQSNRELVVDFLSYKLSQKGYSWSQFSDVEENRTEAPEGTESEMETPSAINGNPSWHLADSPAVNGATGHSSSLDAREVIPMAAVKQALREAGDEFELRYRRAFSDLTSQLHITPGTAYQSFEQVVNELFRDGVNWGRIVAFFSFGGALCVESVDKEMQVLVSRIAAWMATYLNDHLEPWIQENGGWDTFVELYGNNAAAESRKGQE

[3] = molecular target: T2, Bcl-wΔ29 (Homo sapiens, UniProt Q92843); test: Alphascreen GST competition binding assay, benzoylurea compounds vs Biotinylated Bim BH3-26 peptide on GST tagged Bclw ΔC29 protein; conditions: GST tagged Bclw ΔC29 protein 0.05 nM, Biotinylated Bim BH3-26 peptide 3.0 nM, 4 hours at room temperature; values marked a tested in a separate experiment; n.b. = not binding in the assay conditions
T2 construct: GST tagged Bclw ΔC29 protein
T2 sequence (Q92843 1-164 limits assumed): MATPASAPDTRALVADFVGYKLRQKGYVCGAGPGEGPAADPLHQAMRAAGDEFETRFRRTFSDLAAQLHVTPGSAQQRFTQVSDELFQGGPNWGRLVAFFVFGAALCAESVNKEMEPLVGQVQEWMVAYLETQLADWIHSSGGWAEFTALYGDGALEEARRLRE

Mcl-1, sequence (Q07820 whole entry, species assumed): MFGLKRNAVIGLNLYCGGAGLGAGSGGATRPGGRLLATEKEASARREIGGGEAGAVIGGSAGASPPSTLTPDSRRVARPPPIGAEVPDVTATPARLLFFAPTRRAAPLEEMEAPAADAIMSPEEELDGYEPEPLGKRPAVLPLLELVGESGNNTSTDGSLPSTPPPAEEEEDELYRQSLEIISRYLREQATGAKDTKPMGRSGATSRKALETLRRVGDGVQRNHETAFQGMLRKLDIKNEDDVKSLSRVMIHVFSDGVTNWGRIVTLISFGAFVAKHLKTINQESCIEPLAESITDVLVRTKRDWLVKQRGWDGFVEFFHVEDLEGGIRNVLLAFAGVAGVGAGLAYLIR

Row | IC50 [1] | IC50 [2] | IC50 [3] | Bcl-xLΔ25 IC50 (µM) [2] | Mcl-1 IC50 (µM) [1] | SMILES
1 | 169 µM | 27 µM | 45 µM |  |  | Cc1ccc(CN(C(=O)N[C@@H](CSCc2ccccc2)C(=O)O)C(=O)c2ccc(-c3ccccc3)cc2)cc1 [(82)]
2 | 95 µM |  | 40 µM | n.b.^b |  | O=C(O)[C@H](CSCc1ccccc1)NC(=O)N(Cc1ccc(Cl)c(Cl)c1)C(=O)c1ccc(-c2ccccc2)cc1 [(85)]
3 | 70 µM | 22 µM | 39 µM |  |  | CCCSC[C@H](NC(=O)N(CCC)C(=O)c1cccc(C#Cc2ccccc2)c1)C(=O)O [(90)]
4 | 133 µM | 153 µM | 52 µM |  |  | CCCN(C(=O)N[C@@H](CSCc1ccccc1-c1ccccc1)C(=O)O)C(=O)c1cccc(C#Cc2ccccc2)c1 [(96)]
5 | 107 µM | 93 µM | 32 µM |  |  | CCCN(C(=O)N[C@@H](CSCC(C)C)C(=O)O)C(=O)c1cccc(-c2ccccc2Cl)c1 [(98)]
6 | 168 µM | 163 µM | 60 µM |  |  | CCCN(C(=O)N[C@@H](CSC(C)C)C(=O)O)C(=O)c1cccc(-c2ccccc2Cl)c1 [(99)]
7 | 36 µM | 53 µM | 18 µM |  |  | CCCN(C(=O)N[C@@H](CSCc1ccccc1-c1ccccc1)C(=O)O)C(=O)c1cccc(-c2ccccc2Cl)c1 [(103)]
8 | 64 µM | 85 µM | 37 µM |  |  | CC(C)CCc1cccc(C(=O)N(CCc2ccccc2)C(=O)N[C@@H](CSCc2ccccc2)C(=O)O)c1 [(110)]
9 | 112 µM | 119 µM | 40 µM |  |  | CCCCSC[C@H](NC(=O)N(CCc1ccccc1)C(=O)c1cccc(CC(C)C)c1)C(=O)O [(112)]
10 | 70 µM | 32 µM |  |  |  | CCCN(C(=O)N[C@@H](CSCC(C)C)C(=O)O)C(=O)c1cccc(C#Cc2cccc(Br)c2)c1 [(142)]
11 | 66 µM | 39 µM |  |  |  | CCCN(C(=O)N[C@@H](CSCC(C)C)C(=O)O)C(=O)c1cccc(C#Cc2cccc(C)c2)c1 [(144)]
12 | 71 µM | 172 µM |  |  |  | CCCN(C(=O)N[C@@H](CSCC(C)C)C(=O)O)C(=O)c1cccc(C#Cc2ccc(Oc3ccccc3)cc2)c1 [(148)]

Second part, the compound before the results:

Row | SMILES | IC50 [1] | IC50 [2] | IC50 [3] | Bcl-xLΔ25 IC50 (µM) [2] | Mcl-1 IC50 (µM) [1]
13 | COc1ccc(CN(C(=O)N[C@@H](CSCc2ccccc2)C(=O)O)C(=O)c2ccc(-c3ccccc3)cc2)cc1 [(83)] | 77 µM | 14 µM | 35 µM |  | 
14 | O=C(O)[C@H](CSCc1ccccc1)NC(=O)N(Cc1ccc(Cl)cc1)C(=O)c1ccc(-c2ccccc2)cc1 [(84)] | 61 µM | 11 µM | 27 µM |  | 
15 | CCCN(C(=O)N[C@@H](CSCc1ccccc1)C(=O)O)C(=O)c1ccc(/C=C/c2ccccc2)cc1 [(86)] |  | 283 µM | 82 µM |  | n.b.^b
16 | CCCN(C(=O)N[C@@H](CSCc1ccccc1)C(=O)O)C(=O)c1ccc(CCc2ccccc2)cc1 [(89)] | 107 µM | 86 µM | 50 µM |  | 
17 | CCCN(C(=O)N[C@@H](CSCC(C)C)C(=O)O)C(=O)c1cccc(C#Cc2ccccc2)c1 [(91)] | 92 µM | 16 µM | 32 µM |  | 
18 | CCCN(C(=O)N[C@@H](CSC(C)C)C(=O)O)C(=O)c1cccc(C#Cc2ccccc2)c1 [(92)] |  | 36 µM | 67 µM |  | n.b.^b
19 | CCCN(C(=O)N[C@@H](CSc1ccccc1)C(=O)O)C(=O)c1cccc(C#Cc2ccccc2)c1 [(93)] | 53 µM | 27 µM | 26 µM |  | 
20 | CCCN(C(=O)N[C@@H](CSCCc1ccccc1)C(=O)O)C(=O)c1cccc(C#Cc2ccccc2)c1 [(94)] | 46 µM | 23 µM | 19 µM |  | 
21 | CCCSC[C@H](NC(=O)N(CCC)C(=O)c1cccc(-c2ccccc2Cl)c1)C(=O)O [(97)] | 264 µM | 199 µM | 68 µM |  | 
22 | CCCN(C(=O)N[C@@H](CSc1ccccc1)C(=O)O)C(=O)c1cccc(-c2ccccc2Cl)c1 [(100)] | 52 µM | 48 µM | 18 µM |  | 
23 | CCCN(C(=O)N[C@@H](CSCCc1ccccc1)C(=O)O)C(=O)c1cccc(-c2ccccc2Cl)c1 [(101)] | 55 µM | 42 µM | 19 µM |  | 
24 | CCCN(C(=O)N[C@@H](CSCCCc1ccccc1)C(=O)O)C(=O)c1cccc(-c2ccccc2Cl)c1 [(102)] | 51 µM | 50 µM | 18 µM |  | 
25 | CCCN(C(=O)Cc1cccc(-c2ccccc2)c1)C(=O)N[C@@H](CSCc1ccccc1)C(=O)O [(104)] | 267 µM | 187 µM | 205 µM |  | 
26 | CCCN(C(=O)Cc1ccccc1)C(=O)N[C@@H](CSCc1ccccc1)C(=O)O [(105)] | 164 µM | 183 µM | 71 µM |  | 
27 | CC(C)Cc1cccc(C(=O)N(Cc2ccccc2)C(=O)N[C@@H](CSCc2ccccc2)C(=O)O)c1 [(107)] | 73 µM | 70 µM | 37 µM |  | 
28 | CC(C)Cc1cccc(C(=O)N(CCc2ccccc2)C(=O)N[C@@H](CSCc2ccccc2)C(=O)O)c1 [(108)] | 72 µM | 87 µM | 49 µM |  | 
29 | CC(C)CCc1cccc(C(=O)N(Cc2ccccc2)C(=O)N[C@@H](CSCc2ccccc2)C(=O)O)c1 [(109)] | 65 µM | 81 µM | 29 µM |  | 
30 | CCCCSC[C@H](NC(=O)N(Cc1ccccc1)C(=O)c1cccc(CC(C)C)c1)C(=O)O [(111)] | 86 µM | 115 µM | 36 µM |  | 
31 | CCCCSC[C@H](NC(=O)N(Cc1ccccc1)C(=O)c1cccc(CCC(C)C)c1)C(=O)O [(113)] | 65 µM | 94 µM | 28 µM |  | 
32 | CCCCSC[C@H](NC(=O)N(CCc1ccccc1)C(=O)c1cccc(CCC(C)C)c1)C(=O)O [(114)] | 58 µM | 85 µM | 32 µM |  | 
33 | CCCN(C(=O)N[C@@H](CSCC(C)C)C(=O)O)C(=O)c1cccc(C#Cc2cccc(Cl)c2)c1 [(141)] | 84 µM | 28 µM |  |  | 
34 | CCCN(C(=O)N[C@@H](CSCC(C)C)C(=O)O)C(=O)c1cccc(C#Cc2ccccc2C)c1 [(143)] | 74 µM | 30 µM |  |  | 
35 | CCCN(C(=O)N[C@@H](CSCC(C)C)C(=O)O)C(=O)c1cccc(C#Cc2ccc(C)cc2)c1 [(145)] | 92 µM | 48 µM |  |  | 
36 | CCCN(C(=O)N[C@@H](CSCC(C)C)C(=O)O)C(=O)c1cccc(C#Cc2ccccc2OC)c1 [(146)] |  | 46 µM |  |  | n.b.^b
37 | CCCN(C(=O)N[C@@H](CSCC(C)C)C(=O)O)C(=O)c1cccc(C#Cc2ccc(OC)cc2)c1 [(147)] | 85 µM | 50 µM |  |  | 
